Laboratory results published in patent US20240058424A1, “NBP-14 FOR TREATING ALZHEIMER'S ASSOCIATED WITH DOWN'S SYNDROME” (NEURO-BIO LTD, priority 2020, published 2024).
Values joined by “and” are separate entries in the source; they are usually repeats but may differ in a detail not shown here. Identical values can stand only once. Like-named read-outs stand apart in the source and are kept apart here. Where a SMILES comes first, the peptide text is derived from it.

How the values were obtained:
phosphorylated Tau = assay: Brain immunohistochemistry, phosphorylated Tau (AT180, AT8); assay type: in vivo, mice; conditions: for Intracellular phosphorylated Tau immunoreactivity (AT180): hippocampus and cortex of 5XFAD mice
Method: (§1) Group 2 TG-VEH: 5xFAD mice treated with vehicle of formulation (saline).
(§2) Group 3 TG-NBP14: 5xFAD mice treated with NBP-14 at the dose 10 mg/kg.
(§3) Histological Time-Points: • After 1 single treatment at the start of treatment, in a satellite group of mice (T0W). • After 6 weeks of treatment (T6W) in a satellite group of mice. • After 14 weeks of treatment (14W) in a group of mice from NOR cohorts (analysis ongoing).
(§4) Brain samples from all Tg-5XFAD mice were fixed, cryosectioned and immunostained for detection of amyloid, phosphorylated Tau and gliosis using the antibodies listed in Table 1.
(§5) Serial sections were collected and every sixth section starting at the midline were immunostained for markers of AD pathology. A total of six sections per animal were used for quantitative analysis.
(§6) Having shown the ability of NBP-14 to reverse the cognitive decline observed in Tg-5XFAD mice as discussed above, the inventors then sought to determine the structural or physiological changes occurring in the brains of mice treated with NBP-14. The inventors utilised histological staining of the brain to determine the changes of various brain-located markers (i.e. phosphorylated Tau, NeuN, (3-amyloid, and Ibal) that are associated with cognitive decline in both 5XFAD mice and also mice that had been treated with NBP-14. These biomarkers were measured after acute treatment with NBP-14 and also six weeks after treatment.

transgenic Tg-5XFAD mice [1] = assay: Behavioural scoring of grooming/sitting during NOR procedure; assay type: in vivo; conditions: chronic treatment, T1 and T2 phase of NOR procedure, 10 min each
Method: Grooming/sitting/locomotion was measured on the mice subjected to NOR testing [i.e., Wild Type data included at 14 weeks post treatment].
Behavioural scoring was assessed during the T1 (familiar) and T2 (novel) phase of NOR procedure (over 10 min each phase).

NeuN positive neurons = assay: Brain immunohistochemistry, neuronal cell count (NeuN); assay type: in vivo, mice; conditions: cortex and hippocampus
Method: as §1, §2, §3, §4, §5
(§7) Having shown the ability of NBP-14 to reverse the cognitive decline observed in Tg-5XFAD mice as discussed above, the inventors then sought to determine the structural or physiological changes occurring in the brains of mice treated with NBP-14. […]

transgenic Tg-5XFAD mice [2] = assay: Novel Object Recognition (NOR) test for cognitive readout; assay type: in vivo
Excerpt: Assessment of Novel Object Recognition (NOR) test at the following time points: • T0W, basal NOR behaviour immediately before starting of the experiment. • T6W, 6 weeks after starting of treatment. • T14W, 14 weeks after starting of treatment.
Group 1 WT mice (n=15) used as control animal during the experimental procedure. No subject to treatment.
Group 2 TG VEH: 5XFAD mice (n=14) treated with vehicle of formulation (saline).
Group 3 TG NBP14: 5XFAD mice (n=28) treated with NBP14 at the dose 10 mg/kg.
NOR behavioural assessment time points: • Immediately before start of treatment (T0W) • 6 weeks after start of treatment (T6W) • 14 weeks after start of treatment (T14W)
Behaviour recorded on video for subsequent scoring for the object exploration. Object investigation has been defined as directing the nose towards the object (i.e., sniffing or touching with the nose) at a distance of 2 cm or less. Climbing and sitting on the objects is not considered to be object examination.
A criterion of minimal level of object exploration was used in the study to exclude animals with naturally low levels of spontaneous exploration: mice having a minimal level of object exploration of lOs during the test trail will be included in the study.
Results were expressed as the total time spent (seconds) by animal towards the objects. The recognition index (RI) was also calculated as follows: (time exploring the novel object)/(time exploring novel+familiar)*100.
The inventors utilised a “novel object recognition” test, which measures the difference of the time spent exploring an unknown (i.e. novel) object versus a known or familiar object to determine the ability of mice to discriminate between novel and familiar objections that can be used as in indication of memory. The inventors used this test to determine the ability of NBP-14 to reverse memory decline in the transgenic mouse, Tg 5XFAD, predisposed to develop amyloid precursor protein (APP) and therefore amyloid plaques, and ultimately, dementia.
The inventors then determined the recognition index of mice. A recognition index above 50% reflects the ability of mice to explore an unfamiliar object (novel) than a recently presented object.

β-amyloid = assay: Brain immunohistochemistry, β-amyloid (6E10 antibody); assay type: in vivo, mice; conditions: for Mean intensity of β-amyloid (6E10) compared to vehicle: 6 weeks of treatment
Method: as §1, §2, §3, §4, §5, §6

[3] = Blood/brain exposure to NBP-14 after intranasal administration (PK assessment); assay type: in vivo, mice; conditions: for level at 0.5 h / tissue level at time at 0.5 h: 5XFAD, mouse, inhaled or intranasal; for level at 0.5 h: blood, read-out: Blood Concentration; for tissue level at time at 0.5 h: brain, read-out: Brain Concentration
Method: Assessment of PK profile for NBP14, 10mg/kg, to allow PK/PD correlations • Satellite group of mice at T0W and T6W. • Mice from NOR test at T14W.
Group 3 TG NBP14: 5XFAD mice (n=3 for each PK) treated with NBP14 at the dose 10 mg/kg.
After 1 single treatment at the start of treatment (T0W) in a satellite group of mice.
After 6 weeks of treatment (T6W) in a satellite group of mice. The day of PK profile mice were treated with NBP14.
After 14 weeks of treatment (14W) in 2 group of mice from NOR cohorts.
On the day of PK study, mice were treated with NBP14 at 10mg/kg (IN) and blood/brain collected at 30 minutes after treatment.
An additional group of mice was subjected to blood/brain collection for NBP14 exposure without treatment on the same day at the terminal time point, after 14 weeks of treatment, to evaluate an eventual accumulation of test compound (table 1).
The inventors measured the concentration of nasally applied NBP-14 in the blood and the brain of mice, to determine whether NBP-14 was capable of crossing the blood brain barrier when applied intranasally.

5xFAD mice = assay: Clinical signs during intranasal treatment of 5xFAD mice; assay type: in vivo; conditions: 30 mg/kg intranasal, dose lowered to 10 mg/kg from 2nd week
Method: Intranasal (IN, nose to brain) twice a week for 14 weeks (Volume of administration 10 μL/.

[4] = tested on: Iba1 (activated microglia); assay: Brain immunohistochemistry, gliosis (Iba1-positive cells); assay type: in vivo, mice
Method: as §1, §2, §3, §4, §5, §7

[5] = acute treatment, cortex and hippocampus, visual inspection
[6] = 10 mg/kg, 5XFAD mice, 10 mg/kg intranasal twice a week, T = 14W [terminal], sampling 30 min after administration
[7] = T = 14W [terminal], treated 14 weeks but no treated last day

CSCC[C@@H]1NC(=O)[C@H](Cc2ccc(O)cc2)NC(=O)[C@H](CO)NC(=O)[C@H](CO)NC(=O)[C@H](Cc2c[nH]c3ccccc23)NC(=O)[C@H](CCCNC(=N)N)NC(=O)[C@H](Cc2c[nH]cn2)NC(=O)[C@H](Cc2ccccc2)NC(=O)[C@H](CCC(=O)O)NC(=O)[C@H](C)NC(=O)[C@H](CCCCN)NC(=O)[C@H](Cc2c[nH]c3ccccc23)NC(=O)[C@H](Cc2c[nH]cn2)NC(=O)[C@H](C(C)C)NC1=O [NBP-14] (HELM PEPTIDE1{A.E.F.H.R.W.S.S.Y.M.V.H.W.K}$PEPTIDE1,PEPTIDE1,1:R1-14:R2$$$V2.0)
Intracellular phosphorylated Tau immunoreactivity (AT180) (phosphorylated Tau; 6 weeks treatment): no specific intracellular phosphorylated Tau immunoreactivity was detected
pTau detected with AT8 (pS202/pT205) in non-neuronal (NeuN negative) cells (phosphorylated Tau; 14 weeks chronic treatment, cortex and hippocampus, very low levels seen in vehicle-treated mice): not in mice treated with NBP-14
pTau detection (AT180) (phosphorylated Tau; 14 weeks chronic treatment, hippocampus, cortex, basal forebrain): no pTau (gold) was detected
Intracellular phosphorylated Tau immunoreactivity (AT180) (phosphorylated Tau; acute treatment): no specific intracellular phosphorylated Tau immunoreactivity was detected
Reduction in sitting behaviour seen in vehicle-treated Tg-5XFAD mice (transgenic Tg-5XFAD mice [1]): reversed
Total number or density of NeuN positive neurons compared to vehicle (NeuN positive neurons; 6 weeks of treatment): no differences
Total number or density of NeuN positive neurons compared to vehicle (NeuN positive neurons; acute treatment): no differences
Recognition index (RI) compared to vehicle-treated 5xFAD mice (transgenic Tg-5XFAD mice [2]; 10 mg/kg, terminal time point (14 weeks), n=27): statistical significant difference
Time exploring the novel versus familiar object (transgenic Tg-5XFAD mice [2]; 5XFAD mice, 10 mg/kg intranasal twice a week, 6 weeks after treatment, n=28): no significant difference
Time spent exploring novel object versus familiar object (transgenic Tg-5XFAD mice [2]; 5XFAD mice, 10 mg/kg intranasal twice a week, 14 weeks after treatment, n=27): statistically significant difference
Cognitive performance compared to 5XFAD vehicle-treated mice (transgenic Tg-5XFAD mice [2]; 6 week time point of NOR testing): no statistically significant differences
Mean intensity of β-amyloid (6E10) compared to vehicle (β-amyloid; cortex (P<0.05)): significant decrease
Mean intensity of β-amyloid (6E10) compared to vehicle (β-amyloid; hippocampus (P<0.005)): significant decrease
Extracellular amyloid plaques compared to vehicle-treated controls (β-amyloid; 14 weeks, cortex, hippocampus and basal forebrain): significantly reduced
Mean intensity of 6E10 (Aβ) compared to vehicle (β-amyloid; [5]): No differences
Brain Concentration ([3]; 5XFAD mice, 10 mg/kg intranasal, T = 0 (single treatment), sampling 30 min after administration): bql
level at 0.5 h [3, 6]: 202 ng/mL
level at 0.5 h ([3]; 10 mg/kg, 5XFAD mice, 10 mg/kg intranasal, T = 0 (single treatment), sampling 30 min after administration): 44.5 ng/mL
tissue level at time at 0.5 h ([3]; 10 mg/kg, 5XFAD mice, 10 mg/kg intranasal twice a week, T = 6W [intermediate], sampling 30 min after administration): 19.3 ng/g
tissue level at time at 0.5 h [3, 6]: 53 ng/g
BB Ratio ([3]; T = 14W [terminal], 10 mg/kg intranasal, 30 min after administration, 10 mg/kg): 0.26 and 0.21 and 0.30
Blood Concentration [3, 7]: bql
Brain Concentration [3, 7]: bql
Detection of NBP-14 in the brain ([3]; after acute treatment): no NBP-14 was observed in the brain
Detection of NBP-14 in the brain ([3]; intranasal, after both 6 weeks and 14 weeks of treatment): detected in the brain
Accumulation of the compound ([3]; mice treated for 14 weeks, not treated on the day of blood/brain collection): no accumulation
Clinical signs (5xFAD mice): relevant clinical sign
Gliosis (Iba1-positive cells) compared to vehicle ([4]; 6 weeks of treatment, hippocampus): significant (P<0.005) decrease
Total number or density of Iba1-positive cells compared to vehicle [4, 5]: no differences
